Measurements from ChEMBL document CHEMBL1201862, “PubChem BioAssay data set” (2004).
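All cell lines were grown in 96-well plates and treated with compound for 48 hours. At the GI50, growth is halved.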 The source made the active and inactive calls. Rule as the data show it: active = GI50 up to about 1.1 µM and inactive = higher.

What was measured:
Assay in all cases: growth of human tumour cells (NCI), 48 h
786-0 = system: 786-0
A498 = system: A498
A549 = system: A549
ACHN = system: ACHN
CAKI-1 = system: CAKI-1
CCRF-CEM = system: CCRF-CEM
COLO 205 = system: COLO 205
DLD-1 = system: DLD-1
DMS-114 = system: DMS-114
DMS-273 = system: DMS-273
EKVX = system: EKVX
HCC 2998 = system: HCC 2998
HCT-116 = system: HCT-116
HCT-15 = system: HCT-15
HL-60 = system: HL-60
HOP-18 = system: HOP-18
HOP-62 = system: HOP-62
HOP-92 = system: HOP-92
HT-29 = system: HT-29
IGROV-1 = system: IGROV-1
K562 = system: K562
KM-20L2 = system: KM-20L2
KM12 = system: KM12
LOX IMVI = system: LOX IMVI
LXFL 529 = system: LXFL 529
M14 = system: M14
M19-MEL = system: M19-MEL
MOLT-4 = system: MOLT-4
Malme-3M = system: Malme-3M
NCI-H226 = system: NCI-H226
NCI-H23 = system: NCI-H23
NCI-H460 = system: NCI-H460
NCI-H522 = system: NCI-H522
OVCAR-3 = system: OVCAR-3
OVCAR-4 = system: OVCAR-4
OVCAR-5 = system: OVCAR-5
OVCAR-8 = system: OVCAR-8
RPMI-8226 = system: RPMI-8226
RXF 393 = system: RXF 393
RXF 631 = system: RXF 631
SF-268 = system: SF-268
SF-295 = system: SF-295
SF-539 = system: SF-539
SK-MEL-28 = system: SK-MEL-28
SK-MEL-2 = system: SK-MEL-2
SK-MEL-5 = system: SK-MEL-5
SK-OV-3 = system: SK-OV-3
SN12C = system: SN12C
SNB-19 = system: SNB-19
SNB-75 = system: SNB-75
SNB-78 = system: SNB-78
SR = system: SR
SW-620 = system: SW-620
TK-10 = system: TK-10
U-251 = system: U-251
UACC-257 = system: UACC-257
UACC-62 = system: UACC-62
UO-31 = system: UO-31
XF498 = system: XF498

Question: CC(C)c1c2[nH]c3ccccc3c2c(C(C)C)c2[nH]c3ccccc3c12 was tested. Which GI50 (786-0) did it give?
Answer: > 52.5 µM (inactive)

Question: What about the GI50 (A498) of the same compound?
Answer: > 100 µM (inactive)

Question: What about the GI50 (A549) of the same compound?
Answer: > 100 µM (inactive)

Question: And the GI50 (ACHN)?
Answer: 91.8 µM (inactive)

Question: And the GI50 (CAKI-1)?
Answer: > 76.6 µM (inactive)

Question: What about the GI50 (CCRF-CEM) of the same compound?
Answer: > 52.5 µM (inactive)

Question: What about the GI50 (COLO 205) of the same compound?
Answer: 51.9 µM (inactive)

Question: What about the GI50 (DLD-1) of the same compound?
Answer: > 78.7 µM (inactive)

Question: And the GI50 (DMS-114)?
Answer: > 100 µM (inactive)

Question: And the GI50 (DMS-273)?
Answer: 81.5 µM (inactive)

Question: And the GI50 (EKVX)?
Answer: > 100 µM (inactive)

Question: What about the GI50 (HCC 2998) of the same compound?
Answer: > 34.8 µM (inactive)

Question: And the GI50 (HCT-116)?
Answer: > 67.3 µM (inactive)

Question: What about the GI50 (HCT-15) of the same compound?
Answer: 16 µM

Question: What about the GI50 (HL-60) of the same compound?
Answer: 16.5 µM (inactive)

Question: What about the GI50 (HOP-18) of the same compound?
Answer: > 100 µM (inactive)

Question: And the GI50 (HOP-62)?
Answer: > 100 µM (inactive)

Question: And the GI50 (HOP-92)?
Answer: 22.4 µM (inactive)

Question: What about the GI50 (HT-29) of the same compound?
Answer: 10.9 µM (inactive)

Question: What about the GI50 (IGROV-1) of the same compound?
Answer: > 100 µM (inactive)

Question: What about the GI50 (K562) of the same compound?
Answer: 7.78 µM (inactive)

Question: What about the GI50 (KM-20L2) of the same compound?
Answer: 17.6 µM (inactive)

Question: And the GI50 (KM12)?
Answer: 29.9 µM (inactive)

Question: What about the GI50 (LOX IMVI) of the same compound?
Answer: 35.5 µM (inactive)

Question: And the GI50 (LXFL 529)?
Answer: > 100 µM (inactive)

Question: What about the GI50 (M14) of the same compound?
Answer: > 74.8 µM (inactive)

Question: What about the GI50 (M19-MEL) of the same compound?
Answer: > 100 µM (inactive)

Question: And the GI50 (MOLT-4)?
Answer: > 63.2 µM (inactive)

Question: What about the GI50 (Malme-3M) of the same compound?
Answer: > 51.4 µM (inactive)

Question: What about the GI50 (NCI-H226) of the same compound?
Answer: > 47.3 µM (inactive)

Question: And the GI50 (NCI-H23)?
Answer: > 100 µM (inactive)

Question: And the GI50 (NCI-H460)?
Answer: > 57.7 µM (inactive)

Question: And the GI50 (NCI-H522)?
Answer: > 78.7 µM (inactive)

Question: What about the GI50 (OVCAR-3) of the same compound?
Answer: > 54.1 µM (inactive)

Question: And the GI50 (OVCAR-4)?
Answer: > 45.3 µM (inactive)

Question: What about the GI50 (OVCAR-5) of the same compound?
Answer: 47.5 µM (inactive)

Question: And the GI50 (OVCAR-8)?
Answer: > 100 µM (inactive)

Question: And the GI50 (RPMI-8226)?
Answer: 17.7 µM (inactive)

Question: And the GI50 (RXF 393)?
Answer: > 100 µM (inactive)

Question: What about the GI50 (RXF 631) of the same compound?
Answer: > 100 µM (inactive)

Question: And the GI50 (SF-268)?
Answer: > 100 µM (inactive)

Question: And the GI50 (SF-295)?
Answer: > 65.9 µM (inactive)

Question: What about the GI50 (SF-539) of the same compound?
Answer: > 100 µM (inactive)

Question: What about the GI50 (SK-MEL-28) of the same compound?
Answer: > 100 µM (inactive)

Question: What about the GI50 (SK-MEL-2) of the same compound?
Answer: > 100 µM (inactive)

Question: What about the GI50 (SK-MEL-5) of the same compound?
Answer: > 100 µM (inactive)

Question: What about the GI50 (SK-OV-3) of the same compound?
Answer: > 100 µM (inactive)

Question: And the GI50 (SN12C)?
Answer: 35.6 µM (inactive)

Question: What about the GI50 (SNB-19) of the same compound?
Answer: > 100 µM (inactive)

Question: And the GI50 (SNB-75)?
Answer: > 89.7 µM (inactive)

Question: What about the GI50 (SNB-78) of the same compound?
Answer: > 100 µM (inactive)

Question: And the GI50 (SR)?
Answer: 24.7 µM (inactive)

Question: And the GI50 (SW-620)?
Answer: > 82 µM (inactive)

Question: What about the GI50 (TK-10) of the same compound?
Answer: > 100 µM (inactive)

Question: And the GI50 (U-251)?
Answer: > 100 µM (inactive)

Question: And the GI50 (UACC-257)?
Answer: > 100 µM (inactive)

Question: What about the GI50 (UACC-62) of the same compound?
Answer: > 100 µM (inactive)

Question: What about the GI50 (UO-31) of the same compound?
Answer: > 100 µM (inactive)

Question: What about the GI50 (XF498) of the same compound?
Answer: > 100 µM (inactive)
